The values below come from patent US6465429B1, “Antimicrobial cationic peptides” (priority 1995, dated 2002).

Series [1] is described as follows: Synergy of MBI 26 with lysozyme and further antibiotics (reduction in MIC). The format is cell-based. Particulars: in combination with MBI 26 (1.25 μg/mL).
Series [2] relates to Red Blood Cells. Nature of the series: Red Blood Cell lysis. The format is cell-based.
Series [3] deals with E. coli ML 35. The series is described as follows: Inner membrane permeabilization (β-galactosidase, ONPG). The format is cell-based. The following applies: for Lag Time / Rate of Hydrolysis: inner membrane permeabilization; for Lag Time: E. coli ML 35; for Rate of Hydrolysis: E. coli ML 35, ONPG. The method, then:
Inner membrane permeability was determined by measurement in E. coli ML 35 of β-galactosidase activity using ONPG as a substrate. Normally ONPG cannot pass across the cytoplasmic membrane to permit hydrolysis by the cytoplasmic enzyme β-galactosidase. However, cationic peptides, by permeabilizing the inner membrane, unmasks this enzyme leading to color development as ONP is released. […] Addition of citrate increased the lag time before the peptides were able to permeabilize the membranes. When the experiments were executed in cation adjusted media (CAMHB), the lag time was increased up to 30 minutes.

Series [4] is described as follows: α helical content by CD spectra. The series is classed as physicochemical. The method, then: The α helical content of the peptides were measured in buffer, liposomes and 20% Hexafluoroisopropanol (HFPIP). The liposomes constituted of POPC alone or POPC PC and 30% POPG (Table 7).
Series [5] can be described thus: Dansyl polymyxin displacement assay. The following applies: Dansyl polymyxin displacement from LPS. The format is binding. The text has this:
In addition, the peptides of SEQ ID NO: 5-8 also bound effectively to LPS with high affinity based on Dansyl polymyxin displacement assays (Table 5).

Ends that are not written are not given here. Where only a bound is given, the exact number is not on record here.

As to `CO[C@@H]1[C@@H](OC(N)=O)[C@@H](O)[C@H](Oc2ccc3c(O)c(NC(=O)c4ccc(O)c(CC=C(C)C)c4)c(=O)oc3c2C)OC1(C)C` [Novobiocin], the “reduction in MIC” value in series [1] is more than 4 ×.
The same measure, in the same setting: then `CC1(C)S[C@@H]2[C@H](NC(=O)C(C(=O)O)c3ccccc3)C(=O)N2[C@H]1C(=O)O` (some centres unmarked) [carbenicillin], with 2 ×.
As to `CC[C@H](C)[C@H](NC(=O)[C@H](CC(C)C)NC(=O)[C@H](C)NC(=O)[C@@H]1CCCN1C(=O)[C@H](CC(C)C)NC(=O)CNC(=O)[C@@H](NC(=O)[C@@H](NC(=O)[C@H](CC(C)C)NC(=O)[C@@H](NC(=O)[C@H](CCCCN)NC(=O)[C@H](CCCCN)NC(=O)[C@@H](NC(=O)[C@H](C)NC(=O)[C@@H](NC(=O)[C@@H](NC(=O)[C@H](CC(C)C)NC(=O)[C@H](CCCCN)NC(=O)[C@H](CCCCN)NC(=O)[C@@H](NC(=O)[C@H](Cc1ccccc1)NC(=O)[C@H](CCC(=O)O)NC(=O)[C@H](CCCCN)NC(=O)[C@H](Cc1c[nH]c2ccccc12)NC(=O)[C@@H](N)CCCCN)[C@@H](C)CC)[C@@H](C)O)[C@@H](C)O)C(C)C)C(C)C)[C@@H](C)O)[C@@H](C)O)C(=O)N[C@@H](CO)C(=O)O` [compound 492], the “RBC Lysis” value in series [2] is more than 55 µg/mL. Also, in series [3], the “Lag Time” value is 68 s. Besides, the “Rate of Hydrolysis” value in series [3] is 0.23 ΔAU min^−1. Also, the “% α helicity” value stood at 43% in series [4] (20% HFIP), 0% in series [4] (Buffer), 42% in series [4] (POPC Liposomes) and 19% in series [4] (POPC/POPG Liposomes). Also, the Imax in series [5] came out at 48%.
Take “H-KWKSFIKKLTSAAKKVVTTAKPLISS-OH [MBI 26]”: the “RBC Lysis” value in series [2] was more than 55 µg/mL. Also, the “effect of 5 mM Mg++ on inner membrane permeabilization” value in series [3] (4 ug peptide, +5 mM Mg) is “large inhibitory effect”. Also, the “effect of 100 mM NaCl on inner membrane permeabilization” value in series [3] (4 ug peptide, +100 mM NaCl) was “little effect”.
Take “KWKKFIKELQKVLAPGGLLSNIVTSL [compound 493]”: the “RBC Lysis” value in series [2] is more than 55 µg/mL. Besides, in series [3], the “Lag Time” value came to 136 s. For the same compound, the “Rate of Hydrolysis” value in series [3] is recorded as 0.14 ΔAU min^−1. The “% α helicity” value in series [4] (20% HFIP) came to 42%; in series [4] (Buffer), 0%; in series [4] (POPC Liposomes) it was 18%; in series [4] (POPC/POPG Liposomes), 20%. For the same compound, the Imax in series [5] was 56%.
“KWKSFIKNLEKVLKKGPILANLVSIV [compound 491]”: the “RBC Lysis” value in series [2] was more than 55 µg/mL. Moreover, the “Lag Time” value in series [3] was found to be 152 s. The “Rate of Hydrolysis” value in series [3] is 0.14 ΔAU min^−1. For the same compound, the “% α helicity” value in series [4] (20% HFIP) is 44%; in series [4] (Buffer), 0%; in series [4] (POPC Liposomes) it was 0%; in series [4] (POPC/POPG Liposomes) it was 15%. Also, in series [5], the Imax is given as 24%.
For the compound “KWKSFIKNLEKVLKPGGLLSNIVTSL [compound 490]”, the “RBC Lysis” value in series [2] was more than 55 µg/mL. In series [3], the “Lag Time” value stood at 156 s. Further, the “Rate of Hydrolysis” value in series [3] is reported as 0.081 ΔAU min^−1. Besides, the “% α helicity” value amounted to 41% in series [4] (20% HFIP), 0% in series [4] (Buffer), 29% in series [4] (POPC Liposomes) and 27% in series [4] (POPC/POPG Liposomes). The compound also yielded an Imax in series [5] of 40%.
Take Lysozyme: the “reduction in MIC” value in series [1] is given as more than 64 ×.
